In patent US9493460B2, “Diimide compounds” (UCL BUSINESS PLC, priority 2013, dated 2016):

Columns and labels:
[1] = test system: human telomeric G-quadruplex DNA (F21T); experiment: FRET melting assay, human telomeric quadruplex; type: binding; conditions: for change in melting temperature F21T 1 uM: 1 uM ligand; for change in melting temperature F21T 2 uM: 2 uM ligand; for selectivity for quadruplex over duplex DNA (in words): compared to the n=3 compounds
From the text: (§1) The ability of the naphthalene diimide compounds to stabilize DNA sequences was investigated using a fluorescence resonance energy transfer (FRET) assay modified to be used as a high-throughput screen in a 96-well format. Several quadruplex sequences were studied (the human telomeric G-quadruplex DNA sequence 5′-FAM-d(GGG[TTAGGG]3)-TAMRA-3′ and the duplex sequence 5′-FAM-dTATAGCTATA-HEG-TATAGCTATA-TAMRA-3′ (HEG linker: [(—CH2—CH2—O—)6])), as well as two overlapping sequences from the HSP90 promoter region (HSP90a and HSP90b):
(§2) The labelled oligonucleotides have attached to them the donor fluorophore FAM: 6-carboxyfluorescein and the acceptor fluorophore TAMRA: 6-carboxytetramethylrhodamine. The FRET probe sequences were diluted from stock to the correct concentration (400 nM) in a 60 mM potassium cacodylate buffer (pH 7.4) and then annealed by heating to 85° C. for 10 min, followed by cooling to room temperature in the heating block. The compound was stored as a 10 mM stock solution in DMSO; final solutions (at 2×concentration) were prepared using 10 mM HCl in the initial 1:10 dilution, after which 60 mM potassium cacodylate buffer (pH 7.4) was used in all subsequent steps. The maximum HCl concentration in the reaction volume (at a ligand concentration of 20 μM) is thus 200 μM, well within the range of the buffer used. Relevant controls were also performed to check for interference with the assay. 96-Well plates (MJ Research, Waltham, Mass.) were prepared by aliquoting 50 μl of the annealed DNA into each well, followed by 50 μl of the compound solutions. Measurements were made on a DNA Engine Opticon (MJ Research) with excitation at 450-495 nm and detection at 515-545 nm. Fluorescence readings were taken at intervals of 0.5° C. in the range 30-100° C., with a constant temperature being maintained for 30 s prior to each reading to ensure a stable value. Final analysis of the data was carried out using a script written in the program Origin 7.0 (OriginLab Corp., Northampton, Mass.). The advanced curve-fitting function in Origin 7.0 was used for calculation of ΔTm values. All determinations were performed in triplicate or better. Esds in ΔTm are ±0.1° C.
The ability of compounds 3a-h to stabilize a human telomeric quadruplex was assessed by a high-throughput FRET (Fluorescence Resonance Energy Transfer) melting technique. […] None of the furan tetrahydrofuran, pyranose or acyclic ether compounds has any effect on quadruplex or duplex stability.
(§3) The T-loop sequence represents duplex DNA.

[2] = test system: WI38 normal human fibroblast cells; experiment: SRB growth inhibition assay, 96 hr exposure, WI38; type: cell-based; conditions: Homo sapiens, WI-38
Description: (§4) Human cancer cell lines, MCF7 (breast), A549 (lung), Mia-PaCa2, PANC1 and HPAC (pancreatic), RCC4 and 786-0 renal, and the somatic human cell line WI-38 (lung fibroblast) were purchased from ATCC. Cell lines were maintained in appropriate medium supplemented with 10% foetal bovine serum (Invitrogen, UK), 2 mM L-glutamine (Invitrogen, Netherlands), and other components as specified by the suppliers. Cell lines were maintained at 37° C., 5% CO2 and routinely passaged. Drugs were dissolved in DMSO and filtered through 0.22 μm pore-size filter units before addition to cell line appropriate media. Cellular growth inhibition was measured using the sulforhodamine B (SRB) assay in 96 well plates as described previously.^1,2 Fifty percent inhibitory concentrations (IC50) were determined by taking the mean absorbance at 540 nm for each drug concentration expressed as a percentage of the absorbance of untreated control wells.
The anti-proliferative activity of the group of nine ND derivatives was assessed using the SRB assay following 96 h exposure to 2-fold serial dilutions of each compound (Table 2) in a panel of cancer cell lines together with a normal fibroblast line. […] In contrast the morpholine compounds all show sub-μM anti-proliferative activity in at least some of the cancer cell lines used and the two compounds 3d, 3h with n=3 —(CH2)n— linkers to the morpholine groups, show particularly potent activity in the Mia-PaCa2 and PANC1 pancreatic carcinoma and A549 lung adenocarcinoma cell lines (IC50 values of 10-20 nM). […]

A549 (lung) cells = experiment: SRB growth inhibition assay, 96 hr exposure, A549; type: cell-based, human; conditions: Homo sapiens, A549, 96 hr exposure
Description: as §4
(§5) The anti-proliferative activity of the group of nine ND derivatives was assessed using the SRB assay following 96 h exposure to 2-fold serial dilutions of each compound (Table 2) in a panel of cancer cell lines together with a normal fibroblast line. […] In contrast the morpholine compounds all show sub-μM anti-proliferative activity in at least some of the cancer cell lines used and the two compounds 3d, 3h with n=3 —(CH2)n— linkers to the morpholine groups, show particularly potent activity in the Mia-PaCa2 and PANC1 pancreatic carcinoma and A549 lung adenocarcinoma cell lines (IC50 values of 10-20 nM).
(§6) Next a series of structural isomers were tested.

[3] = test system: MiaPaCa2 (pancreatic) cells; experiment: SRB growth inhibition assay, MiaPaCa2; type: cell-based, human; conditions: Homo sapiens, MIA PaCa-2; SRB assay, 96 hr exposure
Description: as §4, §5
Dose-response curves were used to guide the choice of compound concentration and time-points for the array experiments (FIG. 2a). […] To explore this response continuum the transcriptional signature of cells exposed for 24 h to 20 nM, 40 nM, 80 nM concentrations of 3d, or solvent alone as control, was analysed as described in Materials and Methods.
as §6

RCC4 (renal) cells = experiment: SRB growth inhibition assay, 96 hr exposure, RCC4; type: cell-based, human; conditions: Homo sapiens, RCC4
Description: as §4, §5, §6

786-O (renal) cells = experiment: SRB growth inhibition assay, 96 hr exposure, 786-O; type: cell-based, human; conditions: Homo sapiens, 786-0; SRB assay, 96 hr exposure
Description: as §4, §5, §6

duplex DNA (T-loop) = experiment: FRET melting assay, duplex DNA; type: binding; conditions: for change in melting temperature Tloop 1 uM: 1 uM ligand; for change in melting temperature Tloop 2 uM: 2 uM ligand
From the text: as §1, §2, §3

[4] = test system: HSP90b promoter quadruplex sequence; experiment: FRET melting assay, Hsp90B quadruplex; type: binding; conditions: for change in melting temperature Hsp90B 1 uM: 1 uM ligand; for change in melting temperature Hsp90B 2 uM: 2 uM ligand
From the text: as §1
as §2, with “±0.1° C. […]” for “±0.1° C.”

[5] = test system: HSP90a promoter quadruplex sequence; experiment: FRET melting assay, Hsp90A quadruplex; type: binding; conditions: for change in melting temperature Hsp90A 1 uM: 1 uM ligand; for change in melting temperature Hsp90A 2 uM: 2 uM ligand
From the text: as §1
as §2, with “±0.1° C. […]” for “±0.1° C.”

MCF-7 (breast) cells = experiment: SRB growth inhibition assay, 96 hr exposure, MCF-7; type: cell-based, human; conditions: Homo sapiens, MCF7
Description: as §4, §5, §6

| SMILES | change in melting temperature F21T 1 uM [1] | change in melting temperature F21T 2 uM [1] | IC50 [2] | IC50 (A549 (lung) cells) | IC50 [3] | IC50 (RCC4 (renal) cells) | IC50 (786-O (renal) cells) | change in melting temperature Tloop 1 uM (duplex DNA (T-loop)) | change in melting temperature Tloop 2 uM (duplex DNA (T-loop)) | change in melting temperature Hsp90B 1 uM [4] | change in melting temperature Hsp90B 2 uM [4] | change in melting temperature Hsp90A 1 uM [5] | change in melting temperature Hsp90A 2 uM [5] | IC50 (MCF-7 (breast) cells) | selectivity for quadruplex over duplex DNA (in words) [1] |
| --- | --- | --- | --- | --- | --- | --- | --- | --- | --- | --- | --- | --- | --- | --- | --- |
| CN1CCN(CCCNc2cc3c4c(c(NCCCN5CCN(C)CC5)cc5c4c2C(=O)N(CC2CCCO2)C5=O)C(=O)N(CC2CCCO2)C3=O)CC1 (centres unmarked) [MM10] | 23 | 26 | > 10000 nM | 5570 ± 870 nM | 5650 ± 930 nM | > 10000 nM | > 10000 nM | 0 | 0 | 21 | 28 | 27 | 30 | > 10000 nM | – |
| CN1CCN(CCCNc2cc3c4c(c(NCCCN5CCN(C)CC5)cc5c4c2C(=O)N(CC2CCOCC2)C5=O)C(=O)N(CC2CCOCC2)C3=O)CC1 [MM33] | <2 | <2 | 12650 ± 110 nM | 2920 ± 10 nM | 2500 ± 10 nM | 8380 ± 500 nM | 1200 ± 30 nM | 0 | 0 | <2 | <2 | <2 | <2 | 3120 ± 130 nM | – |
| CN1CCN(CCCNc2cc3c4c(c(NCCCN5CCN(C)CC5)cc5c4c2C(=O)N(CCN2CCOCC2)C5=O)C(=O)N(CCN2CCOCC2)C3=O)CC1 [Compound 3f, 4,9-bis((3-(4-methylpiperazin-1-yl)propyl)amino)-2,7-bis(2-morpholinoethyl)benzo[lmn][3,8]phenanthroline-1,3,6,8(2H,7H)-tetraone] | – | – | – | – | – | – | – | – | – | – | – | – | – | – | superior selectivity for quadruplex over duplex DNA |
| CN1CCN(CCCNc2cc3c4c(c(NCCCN5CCN(C)CC5)cc5c4c2C(=O)N(CCN2CCOCC2)C5=O)C(=O)N(CCN2CCOCC2)C3=O)CC1 [MM45] | 27 | 31 | 610 ± 20 nM | 1550 ± 20 nM | 40 ± 10 nM | 1750 ± 180 nM | 630 ± 60 nM | 0 | 1 | 29 | 34 | 34 | 36 | 170 ± 10 nM | – |
| COCCCN1C(=O)c2cc(NCCCN3CCN(C)CC3)c3c4c(cc(NCCCN5CCN(C)CC5)c(c24)C1=O)C(=O)N(CCCOC)C3=O [MM43] | <2 | 22 | 3320 ± 500 nM | 2540 ± 10 nM | 2790 ± 90 nM | 10500 ± 140 nM | 7170 ± 410 nM | 0 | 0 | 24 | 29 | 29 | 32 | 5620 ± 150 nM | – |
| CN1CCN(CCNc2cc3c4c(c(NCCN5CCN(C)CC5)cc5c4c2C(=O)N(CCCN2CCOCC2)C5=O)C(=O)N(CCCN2CCOCC2)C3=O)CC1 [MM47] | 28 | 33 | 2460 ± 20 nM | 23 ± 6 nM | 10 ± 10 nM | 280 ± 60 nM | – | 8 | 12 | 31 | 34 | 32 | 36 | 30 ± 10 nM | – |
| CN1CCN(CCNc2cc3c4c(c(NCCN5CCN(C)CC5)cc5c4c2C(=O)N(CCN2CCOCC2)C5=O)C(=O)N(CCN2CCOCC2)C3=O)CC1 [Compound 3g, 4,9-bis((2-(4-methylpiperazin-1-yl)ethyl)amino)-2,7-bis(2-morpholinoethyl)benzo[lmn][3,8]phenanthroline-1,3,6,8(2H,7H)-tetraone] | – | – | – | – | – | – | – | – | – | – | – | – | – | – | superior selectivity for quadruplex over duplex DNA |
